This note sets out measurements from PMC2770649 (Nucleic Acids Research, 2009).

One experiment deals with human DNA pol β (Homo sapiens, UniProt P06746). As to the kind of experiment: Reporter-strand displacement assay, 1536-well format, pol β. Format: biochemical. The note with it: IC50 against pol β, approximate value.
A further experiment addresses T1, human DNA pol ι (Homo sapiens, UniProt Q9UNA4).
T1 sequence (Q9UNA4 1-740): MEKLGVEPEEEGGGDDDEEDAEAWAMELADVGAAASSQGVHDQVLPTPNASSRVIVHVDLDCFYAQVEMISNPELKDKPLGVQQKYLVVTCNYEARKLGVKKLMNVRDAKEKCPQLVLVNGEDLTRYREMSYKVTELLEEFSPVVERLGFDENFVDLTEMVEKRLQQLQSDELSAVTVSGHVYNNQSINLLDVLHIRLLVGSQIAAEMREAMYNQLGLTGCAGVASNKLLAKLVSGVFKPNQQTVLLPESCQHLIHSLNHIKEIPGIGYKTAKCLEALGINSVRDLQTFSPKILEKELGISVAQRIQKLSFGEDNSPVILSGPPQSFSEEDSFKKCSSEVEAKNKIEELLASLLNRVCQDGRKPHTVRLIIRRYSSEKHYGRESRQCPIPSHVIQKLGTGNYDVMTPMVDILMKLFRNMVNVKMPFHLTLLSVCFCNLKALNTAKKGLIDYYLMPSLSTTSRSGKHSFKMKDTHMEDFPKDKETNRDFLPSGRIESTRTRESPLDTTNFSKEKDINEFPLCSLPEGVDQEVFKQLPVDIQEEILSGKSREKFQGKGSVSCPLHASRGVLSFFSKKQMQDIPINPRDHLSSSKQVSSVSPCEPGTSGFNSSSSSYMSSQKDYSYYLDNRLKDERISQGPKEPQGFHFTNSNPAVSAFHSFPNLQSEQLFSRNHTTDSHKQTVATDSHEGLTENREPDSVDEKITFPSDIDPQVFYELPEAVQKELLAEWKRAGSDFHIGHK
As to the kind of experiment: Reporter-strand displacement assay, 1536-well format, pol ι. Format: biochemical. The note with it: IC50 against pol ι, approximate value.

As for `O=C(O)C1=CC(=C(c2ccc(O)c(C(=O)O)c2)c2ccc(O)c(C(=O)O)c2)C=CC1=O` [Aurintricarboxylic acid], the figures for the concentration for half-maximal inhibition (IC50) at human DNA pol β and at human DNA pol ι were around 20 nM and around 90 nM, respectively.

Consider `O=c1oc2c(O)c(O)cc3c(=O)oc4c(O)c(O)cc1c4c23` [Ellagic acid], for which the IC50 was around 20 nM at human DNA pol β and around 90 nM at human DNA pol ι.
